This is an account of results in patent US10149841B2, “Compound of 3-hydroxyl pyridine, preparation method thereof and pharmaceutical use thereof” (SHENYANG SUNSHINE PHARMACEUTICAL CO. LTD., priority 2015, dated 2018).

This test concerns the target HIF Prolyl hydroxylases 2 (PHD2) (Homo sapiens (Human), UniProt Q9GZT9). Description: Inhibitory effect on PHD2 by fluorescence polarization (HIF-1α / VBC complex interaction). The test is classed as biochemical. To be noted: PHD2 0.5 μg/μl, FAM-HIF (556-575) 1 μM, FP readout with GST-VBC complex. Here is the method: Biological Example 2: Detection of Inhibitory Effect of the Compounds on PHD2 (IC50)
The interaction between hypoxia-inducible factor HIF-1α and VBC complex (von Hippel-Lindau protein-Elongin B-Elongin C, VBC) was detected by Fluorescence polarization (FP) method, to measure the enzyme inhibitory activity of the HIF Prolyl hydroxylases 2 (PHD2) inhibitor compounds.
To a NETN (20 mM Tris.HCl, 100 mM NaCl, 1 mM EDTA, 0.5% NP-40, 1 mM PMSF) buffer containing 200 μM ascorbic acid, 20 μM α-ketoglutaric acid, 100 μM FeCl2 was added FAM-HIF (556-575) at a final concentration of 1 μM in the dark. Subsequently, the desired concentration of the test compound or the positive compound was added (the compound was replaced by the buffer in the negative control and the positive control). Finally, PHD2 was added at a final concentration of 0.5 μg/μl (PHD2 was replaced by the buffer in the negative control). They were mixed well and allowed to stand at room temperature for 30 minutes in the dark followed by 95° C. water bath for 1 minute, and then the reaction was terminated. After the temperature drops to room temperature, the sample was prepared well for use. EBC buffer (50 mM Tris.HCl, 120 mM NaCl, 0.5% NP-40) was added to the corresponding wells of a black 96-well test plate. A GST-VBC complex was added to the corresponding test wells at a final concentration of 300 nM (using the wells containing only EBC buffer as blank wells). Subsequently, the corresponding PHD2 prolyl hydroxylation reaction sample was added in the dark as a substrate with a final concentration of 100 nM. After mixing well, the lateral and longitudinal fluorescence intensity values were measured using a full-wavelength multifunctional microplate reader (TECAN infinite M1000) at an excitation wavelength of […] and an emission wavelength of 518 nm.
The fluorescence polarization (mP) was calculated: mP=1000×(lateral value−G factor×longitudinal value)/(lateral value+G factor×longitudinal value)
wherein, lateral value=lateral fluorescence intensity value of test well−lateral fluorescence intensity value of blank well, • longitudinal value=longitudinal fluorescence intensity value of test well−longitudinal fluorescence intensity value of blank well,
PHD2 inhibition rate (%) of the test compound was calculated according to the following formula: Inhibition rate (%)=1−(mP test well−mP negative control well)/(mP positive control well−mP negative control well).
The IC50 was calculated using the non-linear regression data analysis method of Graphpad Prism 4.0 software ([…]).

HIF Prolyl hydroxylases 2 (PHD2), sequence (Q9GZT9 whole entry, species assumed): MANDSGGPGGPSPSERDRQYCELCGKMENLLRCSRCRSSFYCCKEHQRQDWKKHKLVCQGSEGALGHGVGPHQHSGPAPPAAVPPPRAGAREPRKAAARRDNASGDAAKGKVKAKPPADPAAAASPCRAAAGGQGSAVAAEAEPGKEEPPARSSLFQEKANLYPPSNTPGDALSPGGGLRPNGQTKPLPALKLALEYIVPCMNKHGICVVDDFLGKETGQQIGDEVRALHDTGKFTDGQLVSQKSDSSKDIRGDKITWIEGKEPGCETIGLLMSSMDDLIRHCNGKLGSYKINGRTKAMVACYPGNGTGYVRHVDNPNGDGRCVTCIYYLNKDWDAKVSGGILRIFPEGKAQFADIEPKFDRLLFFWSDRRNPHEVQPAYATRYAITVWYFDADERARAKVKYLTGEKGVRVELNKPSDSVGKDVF

The molecule `O=C(O)CNC(=O)c1ncc(Oc2ccccc2)cc1O` [Compound 1, 2-(3-hydroxy-5-phenoxy-2-pyridylformamido) acetic acid] returned a 50% inhibitory concentration (IC50) of 84 µM.

Consider `Cc1ccc(Oc2cnc(C(=O)NCC(=O)O)c(O)c2)c(C)c1` [Compound 19, 2-(5-(2,4-dimethylphenoxy)-3-hydroxypyridine-2-formamido) acetic acid], for which the 50% inhibitory concentration (IC50) worked out at 63 µM.

As for `Cc1cccc(Oc2cnc(C(=O)NCC(=O)O)c(O)c2)c1C` [Compound 5, 2-(5-(2,3-dimethylphenoxy)-3-hydroxypyridine-2-formamido) acetic acid], the IC50 amounted to 237 µM. This IC50 lies about 3.8-fold higher than the previous one.

In the case of `O=C(O)CNC(=O)c1ncc(Oc2ccc3ccccc3c2)cc1O` [Compound 8, 2-(3-hydroxy-5-(naphthalen-2-oxo)pyridine-2-formamido) acetic acid], 91 µM corresponded to half-maximal inhibition (IC50).

Take `O=C(O)CNC(=O)c1ncc(Oc2cccc(Cl)c2)cc1O` [Compound 22, 2-(5-(3-chlorophenoxy)-3-hydroxypyridine-2-formamido) acetic acid]: the IC50 is 236 µM.

In turn, `O=C(O)CNC(=O)c1ncc(Oc2cccc(F)c2F)cc1O` [Compound 9, 2-(5-(2,3-difluorophenoxy)-3-hydroxypyridine-2-formamido) acetic acid] displayed an IC50 of 15 µM.

The IC50 is the concentration that gives 50% inhibition. Higher therefore signals weaker potency in that assay.
